Where two headings read alike, the source gives them in different places.

Here are results for 17 molecules from patent US8580794B2 (AbbVie Inc., priority 2009, dated 2013).

One assay relates to RS4;11 cells. In words: RS4;11 Cell Viability Assay (CellTiter Glo).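 Also: RS4,11 acute lymphoblastic leukemia cells, viability as percent of untreated control cells, EC50 for loss of viable cells.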 The format is cell-based. The conditions noted are these: 10% human serum.
The target in the next assay is GST-Bc1-2 (Homo sapiens, UniProt P10415). In words: Time Resolved-Fluorescence Resonance Energy Transfer (TR-FRET) Bcl-2 binding assay with F-Bak peptide probe.
Sequence of GST-Bc1-2 (P10415 whole entry): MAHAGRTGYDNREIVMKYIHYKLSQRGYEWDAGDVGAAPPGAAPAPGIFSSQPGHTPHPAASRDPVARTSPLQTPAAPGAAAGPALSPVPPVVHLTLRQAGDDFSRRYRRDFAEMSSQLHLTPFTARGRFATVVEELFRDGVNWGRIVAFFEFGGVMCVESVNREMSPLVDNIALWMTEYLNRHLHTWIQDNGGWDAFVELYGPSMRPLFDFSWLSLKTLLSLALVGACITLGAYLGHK
Setting [1] is: Homo sapiens, RS4-11, 48 h, 50,000 cells per well.
The mark [2] stands for this setting: GST-Bcl-2 1 nM, F-Bak probe 100 nM, Tb-anti-GST 1 nM, '<' = below limit of detection, read-out: TR-FRET Bcl-2 Binding Ki.

Procedure for RS4;11 cells: The acute lymphoblastic leukemia (ALL) cell line RS4;11 was used as the primary human cell line to assess the cellular activity of Bcl-2 selective agents in vitro and their efficacy in vivo.
Cell cytotoxicity EC50 values were assessed using CellTiter Glo (Promega) according to the manufacturer's recommendations. The EC50 values were determined as a percentage of viable cells following treatment compared to the untreated control cells.

On to `CC1(C)CCC(CN2CCN(c3ccc(C(=O)NS(=O)(=O)c4cnc(OCC5CCC6(CC5)CNC(=O)O6)c(Cl)c4)c(Oc4cnc5[nH]ccc5c4)c3)CC2)=C(c2ccc(Cl)cc2)C1` (single isomer, unassigned) [Example 396, N-[(5-chloro-6-{[(5r,8r)-2-oxo-1-oxa-3-azaspiro[4.5]dec-8-yl]methoxy}pyridin-3-yl)sulfonyl]-4-(4-{[2-(4-chlorophenyl)-4,4-dimethylcyclohex-1-en-1-yl]methyl}piperazin-1-yl)-2-(1H-pyrrolo[2,3-b]pyridin-5-yloxy)benzamide], for which a half-maximal response in the assay with RS4;11 cells (setting [1]) (EC50) required 84.1 nM. In addition, the Ki (as a rule, the equilibrium dissociation constant of an inhibitor or competing ligand from its target) at GST-Bc1-2 (setting [2]) came to 0.014 nM.

In the case of `CC1(C)CCC(CN2CCN(c3ccc(C(=O)NS(=O)(=O)c4cnc(OCC5CCC6(CC5)CNC(=O)O6)c(Cl)c4)c(Oc4cnc5[nH]ccc5c4)c3)CC2)=C(c2ccc(Cl)cc2)C1` (single isomer, unassigned) [Example 397, N-[(5-chloro-6-{[(5s,8s)-2-oxo-1-oxa-3-azaspiro[4.5]dec-8-yl]methoxy}pyridin-3-yl)sulfonyl]-4-(4-{[2-(4-chlorophenyl)-4,4-dimethylcyclohex-1-en-1-yl]methyl}piperazin-1-yl)-2-(1H-pyrrolo[2,3-b]pyridin-5-yloxy)benzamide], a half-maximal effect in the assay on RS4;11 cells (50,000 cells per well, 48 hours) (EC50) was put at 113 nM. At GST-Bc1-2 (setting [2]), the Ki is 0.041 nM.

Turning to `CC1(C)CCC(CN2CCN(c3ccc(C(=O)NS(=O)(=O)c4cnc(NC5CCN(C6CCOCC6)CC5)c(Br)c4)c(Oc4cnc5[nH]ccc5c4)c3)CC2)=C(c2ccc(Cl)cc2)C1` [Example 61, N-({5-bromo-6-[(1-tetrahydro-2H-pyran-4-ylpiperidin-4-yl)amino]pyridin-3-yl}sulfonyl)-4-(4-{[2-(4-chlorophenyl)-4,4-dimethylcyclohex-1-en-1-yl]methyl}piperazin-1-yl)-2-(1H-pyrrolo[2,3-b]pyridin-5-yloxy)benzamide], the EC50 (as a rule, the concentration needed to bring the measured effect to its halfway point) with RS4;11 cells (setting [1]) amounted to 183 nM. Moreover, the Ki at GST-Bc1-2 (setting [2]) stood at 0.091 nM.

Consider `O=C(NS(=O)(=O)c1ccc(NCC2CCOCC2)c([N+](=O)[O-])c1)c1ccc(N2CCN(Cc3ccccc3-c3ccc(Cl)cc3)CC2)cc1Oc1ccc2[nH]ccc2c1` [Example 87, 4-{4-[(4′-chloro-1,1′-biphenyl-2-yl)methyl]piperazin-1-yl}-2-(1H-indol-5-yloxy)-N-({3-nitro-4-[(tetrahydro-2H-pyran-4-ylmethyl)amino]phenyl}sulfonyl)benzamide], for which, in the assay with RS4;11 cells (setting [1]), the EC50 was 1180 nM. Moreover, the Ki at GST-Bc1-2 (setting [2]) and at GST-Bc1-2 (read-out: Bcl-2 FRET ki) was 0.618 nM each time.

`CC1(C)CCC(CN2CCN(c3ccc(C(=O)NS(=O)(=O)c4ccc(NN5CCS(=O)(=O)CC5)c([N+](=O)[O-])c4)c(Oc4cnc5[nH]ccc5c4)c3)CC2)=C(c2ccc(Cl)cc2)C1` [Example 107, Trans-4-(4-{[2-(4-chlorophenyl)-4,4-dimethylcyclohex-1-en-1-yl]methyl}piperazin-1-yl)-N-({4-[(1,1-dioxidothiomorpholin-4-yl)amino]-3-nitrophenyl}sulfonyl)-2-(1H-pyrrolo[2,3-b]pyridin-5-yloxy)benzamide] showed an EC50 with RS4;11 cells (setting [1]) of 61.2 nM. At GST-Bc1-2 (setting [2]), the Ki was found to be 0.035 nM.

Molecule `CC1(C)CCC(CN2CCN(c3ccc(C(=O)NS(=O)(=O)c4ccc(N[C@@H]5CCN(CCF)C5)c([N+](=O)[O-])c4)c(Oc4cnc5[nH]ccc5c4)c3)CC2)=C(c2ccc(Cl)cc2)C1` [Example 183, 4-(4-{[2-(4-chlorophenyl)-4,4-dimethylcyclohex-1-en-1-yl]methyl}piperazin-1-yl)-N-[(4-{[(3R)-1-(2-fluoroethyl)pyrrolidin-3-yl]amino}-3-nitrophenyl)sulfonyl]-2-(1H-pyrrolo[2,3-b]pyridin-5-yloxy)benzamide] registered a concentration for a half-maximal effect (EC50) in the assay on RS4;11 cells (setting [1]) of 17.5 nM. Also, at GST-Bc1-2 (setting [2]), the Ki is < 0.01 nM.

Consider `[2H]C1([2H])N(CC2=C(c3ccc(Cl)cc3)CC(C)(C)CC2)C([2H])([2H])C([2H])([2H])N(c2ccc(C(=O)NS(=O)(=O)c3ccc(NCC4CCOCC4)c([N+](=O)[O-])c3)c(Oc3cnc4[nH]ccc4c3)c2)C1([2H])[2H]` [Example 369, 4-[4-{[2-(4-chlorophenyl)-4,4-dimethylcyclohex-1-en-1-yl]methyl}(2H8)piperazin-1-yl]-N-({3-nitro-4-[(tetrahydro-2H-pyran-4-ylmethyl)amino]phenyl}sulfonyl)-2-(1H-pyrrolo[2,3-b]pyridin-5-yloxy)benzamide], for which the response in the assay with RS4;11 cells (setting [1]) was half-maximal at 8 nM (EC50).

`COC(=O)[C@H]1CC[C@H](CNc2ccc(S(=O)(=O)NC(=O)c3ccc(N4CCN(CC5=C(c6ccc(Cl)cc6)CC(C)(C)CC5)CC4)cc3Oc3cnc4[nH]ccc4c3)cc2[N+](=O)[O-])CC1` [Example 379, methyl trans-4-{[(4-{[4-(4-{[2-(4-chlorophenyl)-4,4-dimethylcyclohex-1-en-1-yl]methyl}piperazin-1-yl)-2-(1H-pyrrolo[2,3-b]pyridin-5-yloxy)benzoyl]sulfamoyl}-2-nitrophenyl)amino]methyl}cyclohexanecarboxylate]: in the assay on RS4;11 cells (setting [1]), the response was half-maximal at 19.4 nM (EC50). Moreover, the Ki at GST-Bc1-2 (setting [2]) is < 0.01 nM.

With `CC1(C)CCC(CN2CCN(c3ccc(C(=O)NS(=O)(=O)c4ccc(NC[C@H]5CC[C@H](C(=O)O)CC5)c([N+](=O)[O-])c4)c(Oc4cnc5[nH]ccc5c4)c3)CC2)=C(c2ccc(Cl)cc2)C1` [Example 380, trans-4-{[(4-{[4-(4-{[2-(4-chlorophenyl)-4,4-dimethylcyclohex-1-en-1-yl]methyl}piperazin-1-yl)-2-(1H-pyrrolo[2,3-b]pyridin-5-yloxy)benzoyl]sulfamoyl}-2-nitrophenyl)amino]methyl}cyclohexanecarboxylic acid], the midpoint of the response in the assay on RS4;11 cells (setting [1]), the EC50, lay at 134 nM. The Ki at GST-Bc1-2 (setting [2]) was < 0.01 nM.

In the assay with RS4;11 cells (setting [1]), `CC1(C)CCC(CN2CCN(c3ccc(C(=O)NS(=O)(=O)c4ccc(NC(=O)N5CCC(C#N)CC5)c([N+](=O)[O-])c4)c(Oc4cnc5[nH]ccc5c4)c3)CC2)=C(c2ccc(Cl)cc2)C1` [Example 381, N-(4-{[4-(4-{[2-(4-chlorophenyl)-4,4-dimethylcyclohex-1-en-1-yl]methyl}piperazin-1-yl)-2-(1H-pyrrolo[2,3-b]pyridin-5-yloxy)benzoyl]sulfamoyl}-2-nitrophenyl)-4-cyanopiperidine-1-carboxamide] yielded an EC50 of 1.41 nM. The Ki at GST-Bc1-2 (setting [2]) is < 0.01 nM.

In the assay on RS4;11 cells (setting [1]), `COC[C@H]1CC[C@@H](CNc2ccc(S(=O)(=O)NC(=O)c3ccc(N4CCN(CC5=C(c6ccc(Cl)cc6)CC(C)(C)CC5)CC4)cc3Oc3cnc4[nH]ccc4c3)cc2[N+](=O)[O-])CC1` [Example 382, 4-(4-{[2-(4-chlorophenyl)-4,4-dimethylcyclohex-1-en-1-yl]methyl}piperazin-1-yl)-N-{[4-({[cis-4-(methoxymethyl)cyclohexyl]methyl}amino)-3-nitrophenyl]sulfonyl}-2-(1H-pyrrolo[2,3-b]pyridin-5-yloxy)benzamide] came in with an EC50 of 27 nM. The Ki at GST-Bc1-2 (setting [2]) was < 0.01 nM.

Molecule `COC[C@H]1CC[C@H](CNc2ccc(S(=O)(=O)NC(=O)c3ccc(N4CCN(CC5=C(c6ccc(Cl)cc6)CC(C)(C)CC5)CC4)cc3Oc3cnc4[nH]ccc4c3)cc2[N+](=O)[O-])CC1` [Example 383, 4-(4-{[2-(4-chlorophenyl)-4,4-dimethylcyclohex-1-en-1-yl]methyl}piperazin-1-yl)-N-{[4-({[trans-4-(methoxymethyl)cyclohexyl]methyl}amino)-3-nitrophenyl]sulfonyl}-2-(1H-pyrrolo[2,3-b]pyridin-5-yloxy)benzamide] came in with an EC50 in the assay with RS4;11 cells (setting [1]) of 12.4 nM. Besides, the inhibition constant (Ki) on GST-Bc1-2 (setting [2]) is < 0.01 nM.

As for `CC1(C)CCC(CN2CCN(c3ccc(C(=O)NS(=O)(=O)c4ccc5c(c4)nnn5CC4CCOCC4)c(Oc4cnc5[nH]ccc5c4)c3)CC2)=C(c2ccc(Cl)cc2)C1` [Example 384, 4-(4-{[2-(4-chlorophenyl)-4,4-dimethylcyclohex-1-en-1-yl]methyl}piperazin-1-yl)-2-(1H-pyrrolo[2,3-b]pyridin-5-yloxy)-N-{[1-(tetrahydro-2H-pyran-4-ylmethyl)-1H-benzotriazol-5-yl]sulfonyl}benzamide], in the assay on RS4;11 cells (setting [1]), the EC50 is > 1000 nM. Further, the Ki on GST-Bc1-2 (setting [2]) stood at 0.704 nM.

As for `CC1(C)CCC(CN2CCN(c3ccc(C(=O)NS(=O)(=O)c4cnc(OCC5CCC6(CC5)CNC(=O)O6)c(Cl)c4)c(Oc4cnc5[nH]ccc5c4)c3)CC2)=C(c2ccc(Cl)cc2)C1` (stereo not shown) [Example 385, N-({5-chloro-6-[(2-oxo-1-oxa-3-azaspiro[4.5]dec-8-yl)methoxy]pyridin-3-yl}sulfonyl)-4-(4-{[2-(4-chlorophenyl)-4,4-dimethylcyclohex-1-en-1-yl]methyl}piperazin-1-yl)-2-(1H-pyrrolo[2,3-b]pyridin-5-yloxy)benzamide], in the assay on RS4;11 cells (setting [1]), the EC50 is 133 nM. Further, at GST-Bc1-2 (setting [2]), the Ki is < 0.01 nM.

For `COC1CCN(C(=O)Nc2ccc(S(=O)(=O)NC(=O)c3ccc(N4CCN(CC5=C(c6ccc(Cl)cc6)CC(C)(C)CC5)CC4)cc3Oc3cnc4[nH]ccc4c3)cc2[N+](=O)[O-])CC1` [Example 386, N-(4-{[4-(4-{[2-(4-chlorophenyl)-4,4-dimethylcyclohex-1-en-1-yl]methyl}piperazin-1-yl)-2-(1H-pyrrolo[2,3-b]pyridin-5-yloxy)benzoyl]sulfamoyl}-2-nitrophenyl)-4-methoxypiperidine-1-carboxamide], in the assay with RS4;11 cells (setting [1]), the EC50 is 8.38 nM. Further, the Ki on GST-Bc1-2 (setting [2]) is < 0.01 nM.

Consider `Cc1nc2c(s1)CC(COc1ncc(S(=O)(=O)NC(=O)c3ccc(N4CCN(CC5=C(c6ccc(Cl)cc6)CC(C)(C)CC5)CC4)cc3Oc3cnc4[nH]ccc4c3)cc1Cl)CC2` (stereo not shown) [Example 387], for which a half-maximal effect in the assay with RS4;11 cells (setting [1]) (EC50) was put at 911 nM. The Ki at GST-Bc1-2 (setting [2]) is < 0.01 nM.

`CC1(C)CCC(CN2CCN(c3ccc(C(=O)NS(=O)(=O)c4cnc5c(ccn5CC5CCOCC5)c4)c(Oc4cnc5[nH]ccc5c4)c3)CC2)=C(c2ccc(Cl)cc2)C1` [Example 388, 4-(4-{[2-(4-chlorophenyl)-4,4-dimethylcyclohex-1-en-1-yl]methyl}piperazin-1-yl)-2-(1H-pyrrolo[2,3-b]pyridin-5-yloxy)-N-{[1-(tetrahydro-2H-pyran-4-ylmethyl)-1H-pyrrolo[2,3-b]pyridin-5-yl]sulfonyl}benzamide]: the EC50 in the assay on RS4;11 cells (setting [1]) is > 1000 nM. Besides, at GST-Bc1-2 (setting [2]), the Ki came out at 0.812 nM.
